# According to ChEMBL document CHEMBL6182843, “Actinomycetes: Treasure trove for discovering novel antibiotic candidates” (2025):
# Experiments:
# Format in all cases: functional
# Staphylococcus aureus [1] = assay: Antimicrobial activity against Staphylococcus aureus ATCC 29213 assessed as reduction in microbial growth incubated for 16 hrs by CLSI protocol based Mueller-Hinton broth micro-dilution method
# [2] = tested on: Staphylococcus epidermidis; assay: Antimicrobial activity against Staphylococcus epidermidis ATCC 12228 assessed as reduction in microbial growth incubated for 16 hrs by CLSI protocol based Mueller-Hinton broth micro-dilution method
# Bacillus subtilis [3] = assay: Antibacterial activity against Bacillus subtilis
# Staphylococcus aureus [4] = assay: Antibacterial activity against methicillin-resistant Staphylococcus aureus
# Staphylococcus aureus [5] = assay: Antibacterial activity against methicillin-resistant Staphylococcus aureus ATCC 43300 assessed as reduction in bacterial growth measured for 12 hrs by CLSI protocol based broth microdilution method
# Escherichia coli [6] = assay: Antibacterial activity against […] Escherichia coli ATCC 25922 assessed as reduction in bacterial growth measured for 12 hrs by CLSI protocol based broth microdilution method
# Escherichia coli [7] = assay: Antibacterial activity against Escherichia coli
# Escherichia coli [8] = assay: Antibacterial activity against Escherichia coli ATCC 25922 assessed as reduction in microbial growth incubated for 24 hrs by CLSI protocol based analysis
# Staphylococcus aureus [9] = assay: Antibacterial activity against Staphylococcus aureus assessed as reduction in microbial growth incubated for 24 hrs by CLSI protocol based analysis
# Xanthomonas campestris = assay: Antibacterial activity against Xanthomonas campestris
# Xanthomonas oryzae = assay: Antibacterial activity against Xanthomonas oryzae
# Enterococcus faecalis = assay: Antibacterial activity against Vancomycin-resistant Enterococcus faecalis ATCC 51299
# Staphylococcus aureus [10] = assay: Antibacterial activity against Staphylococcus aureus ATCC 33591
# Staphylococcus aureus [11] = assay: Antibacterial activity against Staphylococcus aureus ATCC 25923 assessed as reduction in microbial growth
# Bacillus subtilis [12] = assay: Antibacterial activity against Bacillus subtilis ATCC 6633 assessed as reduction in microbial growth
# Staphylococcus aureus [13] = assay: Antibacterial activity against Staphylococcus aureus ATCC 33592 assessed as reduction in microbial growth
structure (smiles),measurement,setting,value
C/C=C1\NC(=O)[C@@H](CC)NC(=O)CNC(=O)[C@@](C)(C(C)=O)NC(=O)[C@H](Cc2c[nH]c3cccc(OC)c23)NC(=O)c2csc(n2)[C@@H](C)NC(=O)CNC1=O,MIC,Staphylococcus aureus [1],3.1 µg/mL
same,MIC,[2],1.6 µM
CCc1c(Cc2ccccc2)oc(=O)c(CC)c1O,MIC,Bacillus subtilis [3],> 50 µg/mL
same,MIC,Staphylococcus aureus [4],12.5 µg/mL
CC(=O)NCCc1c(CN2c3ccccc3[C@@]3(O)CCN(C(C)=O)[C@]23O)[nH]c2ccccc12,MIC,Staphylococcus aureus [5],7 µg/mL
same,MIC,Escherichia coli [6],25 µg/mL
C=CC(C)(C)ON(CCCCCCC(O)CCCCCc1nc(CCCNC(=N)NCC=C(C)C)c(OC)nc1CCCNC(=N)NCC=C(C)C)C(=N)N (stereo unspecified),MIC,Escherichia coli [7],1 µg/mL
same,MIC,Staphylococcus aureus [4],1 µg/mL
CC[C@H]1NC(=O)CNC(=O)[C@@](C)(C(C)=O)NC(=O)[C@H](Cc2c[nH]c3cccc(OC)c23)NC(=O)c2csc(n2)[C@@H](C)NC(=O)CNC(=O)/C(=C/CO)NC1=O,MIC,Staphylococcus aureus [1],25 µg/mL
same,MIC,[2],1.6 µM
CC[C@H](C)C[C@]1(O)C(=O)NC[C@H](O)CC(=O)O[C@H](CO[C@@H]2O[C@H](CO)[C@@H](O)[C@H](O)[C@H]2O)CC/C=C(\C)[C@H]2C(C)=C[C@@]3(C)O[C@H]4C[C@]1(O)O[C@@]4(C)[C@@H]23,MIC,Escherichia coli [8],15.7 µg/mL
same,MIC,Staphylococcus aureus [9],11.6 µg/mL
O=C1c2ccc3cc([C@@H](O)CO)cc(O)c3c2C(=O)c2cccc(O)c21,MIC,Escherichia coli [7],1.56 µg/mL
same,MIC,Bacillus subtilis [3],0.78 µg/mL
same,MIC,Staphylococcus aureus [4],0.39 µg/mL
CC(=O)NCCc1c(CC2c3ccccc3[C@]3(O)CCN(C(C)=O)[C@@]23O)[nH]c2ccccc12 (stereo partly specified),MIC,Staphylococcus aureus [5],25 µg/mL
same,MIC,Escherichia coli [6],13 µg/mL
COC(=O)[C@@]1(O)C[C@@H](C)C[C@H](OC)[C@H](O)[C@@H](C)C/C=C(/C)[C@H](OC(N)=O)[C@@H](OC)/C=C\C=C(/C)C(=O)NC2=CC(=O)O[C@]21O,MIC,Xanthomonas campestris,8.12 µg/mL
same,MIC,Xanthomonas oryzae,4.06 µg/mL
CC(=O)NC(CSc1c(C(C)C)c(=O)c2cc(O)c3c(=O)c4c(O)cccc4c(=O)c3c2c1=O)C(=O)O (stereo unspecified),MIC,Staphylococcus aureus [4],0.195 µg/mL
COc1cc2oc3c(c(=O)c2cc1O)C(=O)C1=C(CCc2cc4cc(C)[nH]c(=O)c4c(O)c21)C3=O,MIC,Enterococcus faecalis,0.25 µg/mL
same,MIC,Staphylococcus aureus [10],0.12 µg/mL
C=CC(C)(C)ON(CCCCCCCCCCCC(O)c1nc(CCCNC(=N)N)c(OC)nc1CCCNC(=N)N)C(=N)N (stereo unspecified),MIC,Escherichia coli [7],1.5 µg/mL
same,MIC,Staphylococcus aureus [4],0.8 µg/mL
COC(=O)CCSC1=C(c2ccc(OC)cc2)C(O)C(OC)=C(c2ccc(OC)cc2)C1=O (stereo unspecified),MIC,Staphylococcus aureus [4],12.5 µM
CC(=O)c1cc(C)c(C)n1CCc1c[nH]c2ccccc12,MIC,Staphylococcus aureus [5],25 µg/mL
COc1cc2oc3c(O)c4c(c(O)c3c(=O)c2cc1O)-c1c(cc2cc(C)n(CCO)c(=O)c2c1O)CC4,MIC,Enterococcus faecalis,0.25 µg/mL
same,MIC,Staphylococcus aureus [10],0.25 µg/mL
C=CC(C)(C)ON(CCCCCCC(O)CCCCC(O)c1nc(CCCNC(=N)NCC=C(C)C)c(OC)nc1C(O)CCNC(=N)NCC=C(C)C)C(=N)N (stereo unspecified),MIC,Escherichia coli [7],2 µg/mL
same,MIC,Staphylococcus aureus [4],2 µg/mL
COc1c(O)cc2cc1C[C@@H](C)C[C@H](OC)[C@H](O)[C@@H](C)/C=C(\C)[C@H](OC(N)=O)[C@@H](OC)CC/C=C(\C)C(=O)N2 [REBLASTATIN],MIC,Xanthomonas campestris,0.125 µg/mL
same,MIC,Xanthomonas oryzae,4.06 µg/mL
CC[C@H](C)C[C@@]1(O)C(=O)C[C@H](O)[C@](C)(O)/C=C(\C)[C@@H](O)/C(C)=C/C(C)=C/C[C@@H](CO[C@@H]2O[C@H](CO)[C@@H](O)[C@H](O)[C@H]2O)OC(=O)C[C@@H](O)CNC1=O,MIC,Escherichia coli [8],27.9 µg/mL
same,MIC,Staphylococcus aureus [9],21 µg/mL
COC(=O)c1csc(-c2nc3c(-c4ccc(OC)cc4)c(OC)c(O)c(-c4ccc(OC)cc4)c3s2)n1,MIC,Escherichia coli [7],0.8 µM
same,MIC,Bacillus subtilis [3],0.8 µg/mL
same,MIC,Staphylococcus aureus [4],> 50 µg/mL
C=CC(C)(C)ON(CCCCCCCCCCCC(O)c1nc(CCCNC(=N)NCC=C(C)C)c(OC)nc1C(O)CCNC(=N)NCC=C(C)C)C(=N)N (stereo unspecified),MIC,Escherichia coli [7],0.5 µg/mL
same,MIC,Staphylococcus aureus [4],0.5 µg/mL
CSc1c(C(C)C)c(=O)c2cc(O)c3c(=O)c4c(O)cccc4c(=O)c3c2c1=O,MIC,Staphylococcus aureus [4],3.12 µg/mL
CC[C@H](C)[C@@H]1NC(=O)[C@@H](Cc2c[nH]c3cc(Br)ccc23)NC(=O)[C@@H](Cc2c[nH]c3ccc(Br)cc23)NC(=O)[C@@H](CO)NC(=O)[C@@H](CCC(=O)O)NC(=O)[C@@H](C(C)C)NC1=O,MIC,Staphylococcus aureus [11],25 µg/mL
same,MIC,Bacillus subtilis [12],1.6 µg/mL
same,MIC,Staphylococcus aureus [13],> 100 µg/mL
C=CC(C)(C)ON(CCCCCCCCCCCCc1nc(CCCNC(=N)N)c(OC)nc1CCCNC(=N)N)C(=N)N,MIC,Escherichia coli [7],1 µg/mL
same,MIC,Staphylococcus aureus [4],1 µg/mL
O=C(N[C@H](CO)[C@H](O)c1ccc([N+](=O)[O-])cc1)C(Cl)Cl [CHLORAMPHENICOL],MIC,Staphylococcus aureus [4],3.12 µg/mL
